Source: patent US20140057953A1, “BIARYL DERIVATIVES AS SELECTIVE 17BETA-HYDROXYSTEROID DEHYDROGENASE TYPE 2 INHIBITORS” (priority 2011, published 2014)
Like-named read-outs stand apart in the source and are kept apart here.

What was measured:
[1] = biological target: T1, 17β-HSD2 (Homo sapiens, UniProt P37059); conditions: cited from earlier work
T1 sequence (P37059 1-387): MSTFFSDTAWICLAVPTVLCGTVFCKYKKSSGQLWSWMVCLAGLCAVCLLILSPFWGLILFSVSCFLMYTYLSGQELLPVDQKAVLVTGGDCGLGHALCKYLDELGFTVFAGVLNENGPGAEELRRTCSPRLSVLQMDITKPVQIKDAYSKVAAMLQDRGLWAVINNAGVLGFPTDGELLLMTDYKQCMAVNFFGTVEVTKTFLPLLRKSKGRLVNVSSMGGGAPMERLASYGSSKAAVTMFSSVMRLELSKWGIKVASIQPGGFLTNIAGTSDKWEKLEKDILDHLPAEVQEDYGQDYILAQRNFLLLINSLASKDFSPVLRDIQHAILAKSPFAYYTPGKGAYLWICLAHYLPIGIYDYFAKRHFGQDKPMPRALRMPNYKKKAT

[2] = biological target: ERβ (Homo sapiens, UniProt Q92731); experiment: ER affinity assay (ERβ), [3H]-E2 displacement; conditions: Relative Binding Affinity, E2 = 100%; recombinant human protein
Chain of ERβ (Q92731 whole entry): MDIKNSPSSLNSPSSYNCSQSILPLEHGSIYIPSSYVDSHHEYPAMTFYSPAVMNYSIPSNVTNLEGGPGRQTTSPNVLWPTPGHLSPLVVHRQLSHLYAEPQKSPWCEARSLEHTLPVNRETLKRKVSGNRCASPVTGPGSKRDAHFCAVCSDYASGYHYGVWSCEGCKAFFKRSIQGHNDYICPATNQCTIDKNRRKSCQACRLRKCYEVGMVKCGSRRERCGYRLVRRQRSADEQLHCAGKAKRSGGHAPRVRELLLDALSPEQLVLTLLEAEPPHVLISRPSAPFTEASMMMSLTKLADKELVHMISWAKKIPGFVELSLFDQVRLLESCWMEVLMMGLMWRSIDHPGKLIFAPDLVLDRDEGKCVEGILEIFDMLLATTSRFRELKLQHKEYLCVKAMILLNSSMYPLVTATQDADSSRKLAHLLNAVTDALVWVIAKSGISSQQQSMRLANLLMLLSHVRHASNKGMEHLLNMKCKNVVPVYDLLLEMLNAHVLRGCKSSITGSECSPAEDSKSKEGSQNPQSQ
Experimental: (§1) The binding affinity of selected compounds to the ERα and ERβ was determined according to Zimmermann et al. (Zimmermann, J. et al., 3. Steroid Biochem. Mol. Biol., 94:57-66 (2005)) using recombinant human proteins. Briefly, 0.25 μM of ERα or ERβ, respectively, were incubated with [^3H]-E2 (10 nM) and test compound for 1 h at room temperature. The potential inhibitors were dissolved in DMSO (5% final concentration). Evaluation of non-specific-binding was performed with diethylstilbestrol (10 μM). After incubation, ligand-receptor complexes were selectively bound to hydroxyapatite (5 g/60 ml TE-buffer). The formed complex was separated, washed and resuspended in ethanol. For radiodetection, scintillator cocktail (Quickszint 212, Zinsser Analytic, Frankfurt) was added and the samples were measured in a liquid scintillation counter (Rack Beta Primo 1209, Wallac, Turku). […] The compound concentration to displace 50% of the receptor bound [^3H]-E2 were determined. Unlabelled E2 was used as a reference. For determination of the relative binding affinity (RBA) the ratio was calculated according to the following equation: […]
(§2) After the assay was established and validated a modification was made to increase throughput. […] Results were reported as RBA ranges.

[3] = biological target: T1, 17β-HSD2; experiment: Inhibition of 17β-HSD2 in MDA-MB-231 cellular assay; format: cell-based; conditions: MDA-MB-231 cells, substrate [3H]-E2 200 nM
Experimental: [^3H-E2] (200 nM) is used as substrate, and is incubated with the inhibitor for 3.5 h at 37° C. After ether extraction, substrate and product are separated by HPLC and detected with a radioflow detector following the method previously described.

[4] = biological target: T1, 17β-HSD2; experiment: Inhibition of 17β-HSD2 in cell-free assay; format: biochemical; parameters: 17β-HSD2 was obtained directly from the microsomal fraction; from tissue; host or cells: human placenta, microsomal fraction; conditions: human placenta, microsomal fraction, substrate E2 500 nM, cofactor NAD+ 1500 μM
Experimental: (§3) Fresh human placenta was homogenized. Cytosolic and microsomal fractions were separated by centrifugation at 1000 g, 10000 g and 150000 g. 17β-HSD2 was obtained directly from the microsomal fraction. For the partial purification of 17β-HSD1, the cytosolic fraction was precipitated with ammonium sulfate. Aliquots containing 17β-HSD1 or 17β-HSD2 were stored frozen.
Inhibitor stock solutions were prepared in DMSO. Final concentration of DMSO was adjusted to 1% in all samples. The enzymatic reaction was started by addition of a mixture of unlabelled- and [^3H]-E2 (final concentration: 500 nM, 0.11 μCi). After 20 min at 37° C., the incubation was stopped with HgCl2 and the mixture was extracted with ether. After evaporation, the steroids were dissolved in acetonitrile. E1 and E2 were separated using acetonitrile/water (45:55) as mobile phase in a C18 RP chromatography column (Nucleodur C18, 3 μm, Macherey-Nagel, Duren) connected to a HPLC-system (Agilent 1100 Series, Agilent Technologies, Waldbronn). Detection and quantification of the steroids were performed using a radioflow detector (Berthold Technologies, Bad Wildbad). The conversion rate was calculated according to the following equation: […]

[5] = biological target: T2, ERα (Homo sapiens, UniProt P03372); experiment: ER affinity assay (ERα), [3H]-E2 displacement; conditions: Relative Binding Affinity, E2 = 100%; recombinant human protein
T2 sequence (P03372 1-595): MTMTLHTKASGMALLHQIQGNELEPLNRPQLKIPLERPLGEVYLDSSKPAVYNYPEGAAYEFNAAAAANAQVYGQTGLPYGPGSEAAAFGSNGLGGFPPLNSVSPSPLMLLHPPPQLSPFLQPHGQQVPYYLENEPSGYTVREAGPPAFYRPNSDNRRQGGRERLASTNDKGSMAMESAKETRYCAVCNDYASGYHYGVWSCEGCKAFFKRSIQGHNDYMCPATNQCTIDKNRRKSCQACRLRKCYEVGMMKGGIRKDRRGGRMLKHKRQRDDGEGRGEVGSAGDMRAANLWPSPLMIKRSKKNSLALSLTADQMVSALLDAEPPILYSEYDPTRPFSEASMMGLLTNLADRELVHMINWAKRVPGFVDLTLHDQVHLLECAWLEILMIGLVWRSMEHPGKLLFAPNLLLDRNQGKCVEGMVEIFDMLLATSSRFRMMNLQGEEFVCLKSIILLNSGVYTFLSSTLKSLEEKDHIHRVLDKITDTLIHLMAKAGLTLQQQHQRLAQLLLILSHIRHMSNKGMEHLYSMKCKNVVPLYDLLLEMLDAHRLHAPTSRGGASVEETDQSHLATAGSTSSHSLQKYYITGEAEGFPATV
Experimental: as §1, §2

[6] = biological target: T3, 17β-HSD1 (Homo sapiens, UniProt P14061); experiment: Inhibition of 17β-HSD1 in cell-free assay; format: biochemical; conditions: human placenta, cytosolic fraction, substrate E1 500 nM, cofactor NADH 500 μM
T3 construct: For the partial purification of 17β-HSD1, the cytosolic fraction was precipitated with ammonium sulfate; from tissue; host or cells: human placenta, cytosolic fraction
T3 sequence (P14061 1-328): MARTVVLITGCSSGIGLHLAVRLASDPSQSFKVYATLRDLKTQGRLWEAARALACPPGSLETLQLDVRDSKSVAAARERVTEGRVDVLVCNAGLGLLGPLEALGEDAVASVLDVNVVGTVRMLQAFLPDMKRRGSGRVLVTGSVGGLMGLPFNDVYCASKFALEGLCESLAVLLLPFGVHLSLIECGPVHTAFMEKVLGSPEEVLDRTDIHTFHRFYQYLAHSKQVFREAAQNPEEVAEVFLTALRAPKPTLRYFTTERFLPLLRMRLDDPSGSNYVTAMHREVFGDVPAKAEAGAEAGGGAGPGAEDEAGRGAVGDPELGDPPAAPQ
Experimental: as §3
The 17β-HSD1 inhibition assay was performed similarly to the 17β-HSD2 test. The cytosolic fraction was incubated with NADH [500 μM], test compound and a mixture of unlabelled- and [^3H]-E1 (final concentration: 500 nM, 0.15 μCi) for 10 min at 37° C. Further treatment of the samples and HPLC separation was carried out as mentioned above for 17β-HSD2.

[7] = test system: osteoporosis model; conditions: monkeys; cited from earlier work

SMILES | ERβ RBA (%) [2] | inhibition at 1 µM [3] | IC50 [4] | ERα RBA (%) [5] | IC50 [6] | inhibitory activity (17β-HSD2) ([1]; at 100 nM) | inhibitory activity (17β-HSD2) ([1]; at 1 μM) | effect on local level of E2 and T in bones [7]
C[C@]12CCC3c4ccc(O)cc4CCC3C1CC[C@@]21CCCC(=O)O1 (stereo partly drawn) [C17-spirolactone 1] | – | – | – | – | – | 40% | 70% | –
COc1ccc(-c2ccc(C(=O)N(C)Cc3cccc(O)c3)s2)cc1 [compound 39, N-(3-Hydroxybenzyl)-5-(4-methoxyphenyl)-N-methylthiophene-2-carboxamide] | <0.1% | 88% | 161 nM | <0.1% | > 40000 nM | – | – | –
COc1cccc(N(C)C(=O)c2ccc(-c3ccccc3)s2)c1 [compound 51, N-(3-Methoxyphenyl)-N-methyl-5-phenylthiophene-2-carboxamide] | <0.1% | 67% | 207 nM | <0.1% | 4340 nM | – | – | –
COc1cccc(N(C)C(=O)c2ccc(-c3cccc(OC)c3F)s2)c1 [compound 56, 5-(2-Fluoro-3-methoxyphenyl)-N-(3-methoxyphenyl)-N-methylthiophene-2-carboxamide] | <0.1% | 70% | 62 nM | <0.1% | – | – | – | –
CN1C(=O)C[C@H](c2ccccc2)[C@@H]1[C@H](O)c1ccc(-c2cccnc2)s1 [inhibitor 3] | – | – | – | – | – | – | – | helps to maintain a sufficient local level of E2 and T in bones

Second part, led by results:

ERβ RBA (%) [2] | inhibition at 1 µM [3] | IC50 [4] | ERα RBA (%) [5] | IC50 [6] | SMILES | inhibitory activity (17β-HSD2) ([1]; at 100 nM) | inhibitory activity (17β-HSD2) ([1]; at 1 μM) | effect on local level of E2 and T in bones [7]
<0.1% | 75% | 148 nM | <0.1% | 2980 nM | CN(Cc1cccc(O)c1)C(=O)c1ccc(-c2ccccc2O)s1 [compound 28, N-(3-Hydroxybenzyl)-5-(2-hydroxyphenyl)-N-methylthiophene-2-carboxamide] | – | – | –
<0.1% | – | 242 nM | <0.1% | > 40000 nM | COc1cccc(N(C)C(=O)c2ccc(-c3ccc(OC)c(F)c3)s2)c1 [compound 61, 5-(3-Fluoro-4-methoxyphenyl)-N-(3-methoxyphenyl)-N-methylthiophene-2-carboxamide] | – | – | –
<0.1% | 50% | 207 nM | <0.1% | 11500 nM | COc1cccc(-c2ccc(C(=O)N(C)c3cccc(C)c3)s2)c1 [compound 70, 5-(3-Methoxyphenyl)-N-methyl-N-m-tolylthiophene-2-carboxamide] | – | – | –
<0.1% | – | 644 nM | <0.1% | 6800 nM | Cc1cccc(N(C)C(=O)c2ccc(-c3cccc(O)c3)s2)c1 [compound 71, 5-(3-Hydroxyphenyl)-N-methyl-N-m-tolylthiophene-2-carboxamide] | – | – | –
<0.1% | – | 721 nM | <0.1% | 12300 nM | COc1cccc(-c2ccc(C(=O)N(C)c3cccc(C(F)(F)F)c3)s2)c1 [compound 75, 5-(3-Methoxyphenyl)-N-methyl-N-(3-(trifluoromethyl)phenyl)thiophene-2-carboxamide] | – | – | –
